# In patent publication US20210161999A1, “COMPOSITIONS AND METHODS RELATED TO OVERCOMING INNATE IMMUNE BARRIERS TO CANCER IMMUNOTHERAPY” (Health Research, Inc., priority 2018, published 2021):
# “Also recorded” adds a separate entry of the source. *1 amine or outer side, *2 acyl side, *3 side chain or, on linkers, in order; H or OH if unused. Where a SMILES comes first, the peptide text is derived from it. Bridges are numbered along the chain shown (N, C = ends). Roman numbers before positions name the chains, in order. [ ]: non-standard residue; d: D form. Actinocin(9to1) = Cc1c2oc3c(C)ccc(C(=O)[*:1])c3nc-2c(C(=O)[*:2])c(N)c1=O; NMeV = CN[C@H](C(=O)O)C(C)C; Sar = CNCC(=O)O
# Tested on: PMN suppressor phenotype (suppression of anti-CD3/CD28-stimulated T cell proliferation)
# Assay: Coculture of PMN with ascites supernatants and anti-CD3/CD28-stimulated T cells; T cell proliferation by [3H] thymidine incorporation
# Format: cell-based, human
# Details: for effect on ascites-induced PMN-mediated suppression: L-arginine 50 μM-1 mM, NAC 10-25 mM, DNase I 50-100 IU (n=3)
# Description: Freshly isolated T cells (1e5) were stimulated with anti-CD3/CD28 Dynabeads (2.5 μl; Thermo Fisher Scientific) and cocultured with autologous PMN (1:1) and ascites supernatants (50% final well volume) in an incubator at 37° C., 5% CO2. After 72 h, [^3H] thymidine (1 μCi per well) was added and allowed to incorporate for 16-18 h. Cells were harvested onto a Filtermat and counted on a Beta counter. Results are expressed as net cpm [calculated by subtracting the average cpm of unstimulated T cells from the average cpm of stimulated T cells].
# Where indicated, T cells, PMN, and ascites supernatants underwent various pretreatments. Where indicated, T cells were pretreated for lh with neutralizing antibody against ICAM-I (1-10 μg), IgG1 isotype (1-10 μg), or media (RPMI 1640, 5-10% heat-inactivated FBS, HEPES, sodium pyruvate, non-essential amino acids, and penicillin-streptomycin).
# Where indicated, PMN were pretreated for lh with neutralizing antibody against CD11b (1-10 μg), TGF-beta receptor 1 (1-10 μg) or IgG1 isotype (1-10 μg); thapsigargin (THG, 0.5-2 μM), diphenyleneiodonium (DPI, 1-25 μM), N-Formylmethionine-leucyl-phenylalanine (fMLF, 1-100 nM), brefeldin-A (1-10 μg/mL), ER export inhibitor 1 (Exol, 20-75 μM), CI-amidine (10-20 μM), SNARE decoys: TAT-SNAP23 (0.6-0.9 μg/mL), TAT-SYN4 (0.6-0.9 μg/mL), TAT-GST (0.6-0.9 μg/mL) (produced as described in the laboratory of Dr. Kenneth McLeish), puromycin and actinomycin-D (1-5 μg/mL), or with media.
# Where indicated, ascites supernatants were pretreated with heat (56° C., lh) to denature heat-labile constituents or proteinase-K (100 μM, 37° C., 12 h) to degrade proteins. Two formulations of compstatin, a peptide C3 inhibitor, were used: CS (250 μM, 30° C., 2 h, Tocris) and Cp40 (1.25-20 μM, 30° C., 2 h), as well as a scramble peptide. In separate studies, ascites supernatants were ultra-centrifuged (100,000g, 4° C., 1.5 h) to separate the membrane-rich (MR-ASC) and membrane-depleted (MD-ASC) fractions. In others, ascites supernatants were pretreated for lh with neutralizing antibody against C5 (0.5-1.0 μg, A217; Quidel, San Diego, Calif.) or C7 (0.5-1.0 μg, A221; Quidel) or IgG1 isotype (0.5-1.0 μg), or with OmCI (0.6-1.2 μM), a peptide C5 inhibitor derived from the saliva of Ornithodoros moubata (35, 36).
# [1] = added to cocultures, indomethacin 10 μM, zileuton 50 μM, 1-MT 100 μM
# [2] = PMN pretreated, brefeldin-A 1-10 μg/mL, Exo1 20-75 μM (n=3)
# [3] = PMN pretreated for 1 h prior to coculture, puromycin 1 μg, D-actinomycin 1 μg (n=8)
# [4] = PMN pretreated, fMLF 100 nM, THG 1 μM, DPI 1 μM (n=7)
molecule,measurement,setting,value
Cn1cc(CC(N)C(=O)O)c2ccccc21 (racemic) [1-methyl-DL-tryptophan],effect on PMN suppressor phenotype,[1],did not reverse the phenotype; also recorded: had no effect on the PMN suppressor phenotype
NC(=O)[C@H](CCCN=C(N)CCl)NC(=O)c1ccccc1 [CI-amidine],effect on PMN suppressor phenotype,PMN pretreated with CI-amidine (10-20 μM) for 1 h prior to coculture (n=3),did not abrogate the PMN suppressor phenotype; also recorded: had no effect on the PMN suppressor phenotype
"CC[C@H](C)[C@H](N)C(=O)N[C@H]1CSSC[C@@H](C(=O)N[C@H](C(N)=O)[C@@H](C)O)NC(=O)[C@H](CCCN=C(N)N)NC(=O)[C@H](Cc2cnc[nH]2)NC(=O)[C@H](Cc2cnc[nH]2)NC(=O)CNC(=O)[C@H](Cc2c[nH]c3ccccc23)NC(=O)[C@H](CC(=O)O)NC(=O)[C@H](CCC(N)=O)NC(=O)[C@H](C(C)C)NC(=O)[C@H](C(C)C)NC1=O [CS, compstatin]",effect on PMN suppressor phenotype,"added to ASC 2 h prior to coculture with PMN and T cells, CS 250 μM, Cp40 20 μM, scramble peptide 20 μM",abrogated the PMN suppressor phenotype
same,effect on PMN suppressor phenotype,"added to ASC 2 h prior to coculture with PMN and T cells, CS 250 μM, Cp40 20 μM, scramble peptide 20 μM, listed as compstatin",completely abrogated the PMN suppressor phenotype
COC(=O)c1ccccc1NC(=O)c1ccc(F)cc1 [ER export inhibitor 1],effect on PMN suppressor phenotype,[2],abrogated the suppressor phenotype
same,effect on PMN suppressor phenotype,"PMN pretreated, brefeldin-A 1-10 μg/mL, Exo1 20-75 μM (n=3), listed as Exo1",abrogated the PMN suppressor phenotype
N=C(N)NCCC[C@H](N)C(=O)O [L-arginine],effect on ascites-induced PMN-mediated suppression,added to cocultures,did not reverse ascites-induced PMN-mediated suppression; also recorded: had no effect on T cell suppression
CC(=O)N[C@@H](CS)C(=O)O [N-acetylcysteine],effect on ascites-induced PMN-mediated suppression,added to cocultures,did not reverse ascites-induced PMN-mediated suppression
same,effect on ascites-induced PMN-mediated suppression,"added to cocultures, listed as NAC",did not reverse suppression
"Cc1c2oc3c(C)ccc(C(=O)N[C@@H]4C(=O)N[C@H](C(C)C)C(=O)N5CCC[C@H]5C(=O)N(C)CC(=O)N(C)[C@@H](C(C)C)C(=O)O[C@@H]4C)c3nc-2c(C(=O)N[C@@H]2C(=O)N[C@H](C(C)C)C(=O)N3CCC[C@H]3C(=O)N(C)CC(=O)N(C)[C@@H](C(C)C)C(=O)O[C@@H]2C)c(N)c1=O [actinomycin D] (I: T[dV]P[Sar][NMeV] / II: T[dV]P[Sar][NMeV]; ester I:1-I:C, II:1-II:C; linker I:N-II:N via Actinocin(9to1))",effect on PMN suppressor phenotype,[3],variable abrogation of the suppressor phenotype
same,effect on PMN suppressor phenotype,"PMN pretreated for 1 h prior to coculture, puromycin 1 μg, D-actinomycin 1 μg (n=8), listed as D-actinomycin",had more variable effects
C[C@H]1CCC/C=C/[C@@H]2C[C@H](O)C[C@H]2[C@H](O)/C=C/C(=O)O1 [brefeldin-A],effect on PMN suppressor phenotype,[2],abrogated the PMN suppressor phenotype
c1ccc2c(c1)[I+]c1ccccc1-2 [diphenyleneiodonium],effect on PMN suppressor phenotype,[4],abrogated the PMN suppressor phenotype
same,effect on PMN suppressor phenotype,"PMN pretreated, fMLF 100 nM, THG 1 μM, DPI 1 μM (n=7), listed as DPI",did abrogate the PMN suppressor phenotype
COc1ccc2c(c1)c(CC(=O)O)c(C)n2C(=O)c1ccc(Cl)cc1 [indomethacin],effect on PMN suppressor phenotype,[1],had no effect on the PMN suppressor phenotype
same,effect on PMN suppressor phenotype,"added to cocultures, indomethacin 10 μM, zileuton 50 μM, 1-MT 100 μM, listed as Indomethacin",did not reverse the phenotype
COc1ccc(C[C@H](N)C(=O)N[C@H]2[C@@H](O)[C@H](n3cnc4c(N(C)C)ncnc43)O[C@@H]2CO)cc1 [puromycin],effect on PMN suppressor phenotype,[3],abrogated the PMN suppressor phenotype; also recorded: variable abrogation of the suppressor phenotype
C/C=C(/C)C(=O)O[C@H]1C(C)=C2[C@H]([C@@H]1OC(=O)CCCCCCC)[C@@](C)(OC(C)=O)C[C@H](OC(=O)CCC)[C@@]1(O)[C@H]2OC(=O)[C@@]1(C)O [thapsigargin],effect on PMN suppressor phenotype,[4],abrogated the PMN suppressor phenotype
CC(c1cc2ccccc2s1)N(O)C(N)=O (stereo not shown) [zileuton],effect on PMN suppressor phenotype,[1],did not reverse the phenotype; also recorded: had no effect on the PMN suppressor phenotype
N-Formylmethionine-leucyl-phenylalanine [fMLF],effect on PMN suppressor phenotype,[4],abrogated the PMN suppressor phenotype; also recorded: prevented induction of the PMN suppressor phenotype
"OmCI: peptide C5 inhibitor derived from the saliva of Ornithodoros moubata (protein, UniProt Q5YD59 19-168, looked up) Complement inhibitor: DSESDCTGSEPVDAFQAFSEGKEAYVLVRSTDPKARDCLKGEPAGEKQDNTLPVMMTFKNGTDWASTDWTFTLDGAKVTATLGNLTQNREVVYDSQSHHCHVDKVEKEVPDYEMWMLDAGGLEVEVECCRQKLEELASGRNQMYPHLKDC",effect on PMN suppressor phenotype,ASC pretreated 1 h with neutralizing Ab against C5 or C7 (0.5-1.0 μg) or OmCI (0.6-1.2 μM) prior to coculture,partially abrogated the PMN suppressor phenotype; also recorded: had a partial abrogating effect on T cell suppression
"DNase I: enzyme added to the cocultures to degrade NETs (protein, UniProt P24855 23-282, looked up) Deoxyribonuclease-1: LKIAAFNIQTFGETKMSNATLVSYIVQILSRYDIALVQEVRDSHLTAVGKLLDNLNQDAPDTYHYVVSEPLGRNSYKERYLFVYRPDQVSAVDSYYYDDGCEPCGNDTFNREPAIVRFFSRFTEVREFAIVPLHAAPGDAVAEIDALYDVYLDVQEKWGLEDVMLMGDFNAGCSYVRPSQWSSIRLWTSPTFQWLIPDSADTTATPTHCAYDRIVVAGMLLRGAVVPDSALPFNFQAAYGLSDQLAQAISDHYPVEVMLK",effect on ascites-induced PMN-mediated suppression,added to cocultures,did not reverse ascites-induced PMN-mediated suppression; also recorded: had no effect on the PMN suppressor phenotype
